Results: ChEMBL document CHEMBL1681668, “Discovery of INCB10820/PF-4178903, a potent, selective, and orally bioavailable dual CCR2 and CCR5 antagonist” (Bioorg Med Chem Lett, 2011)

Tests used:
[1] = target: C-C chemokine receptor type 5 (Homo sapiens, UniProt P51681); assay: Displacement of labeled MIP-1beta from human CCR5 receptor
[2] = target: C-C chemokine receptor type 2 (Homo sapiens) (UniProt P41597); assay: Displacement of [125I]MCP1 from human CCR2 at 1000 nM after 30 mins by gamma counting
Sequence of C-C chemokine receptor type 2 (Homo sapiens) (P41597 whole entry, looked up): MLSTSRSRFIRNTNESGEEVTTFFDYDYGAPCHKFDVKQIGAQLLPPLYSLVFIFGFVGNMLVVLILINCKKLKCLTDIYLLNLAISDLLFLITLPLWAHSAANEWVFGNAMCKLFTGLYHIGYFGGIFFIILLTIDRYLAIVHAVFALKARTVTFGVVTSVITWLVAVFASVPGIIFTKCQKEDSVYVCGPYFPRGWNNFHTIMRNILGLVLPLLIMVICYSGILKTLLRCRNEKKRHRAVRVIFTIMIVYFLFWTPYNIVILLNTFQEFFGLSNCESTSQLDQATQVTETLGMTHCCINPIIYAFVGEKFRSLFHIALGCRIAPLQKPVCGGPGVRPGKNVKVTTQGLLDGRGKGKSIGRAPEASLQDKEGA

[3] = Half life in human liver microsomes; format: ADME, Microsome
[4] = Clearance in rat at 5 mg/kg, iv and 10 mg/kg, po; format: ADME, organism-based; settings: in vivo
[5] = Volume of distribution at steady state in rat at 5 mg/kg, iv and 10 mg/kg, po; format: ADME, organism-based; settings: in vivo, read-out: Vdss
[6] = Half life in rat at 5 mg/kg, iv; format: ADME, organism-based; set-up: dose 5 mg/kg, route intravenous; settings: in vivo
[7] = AUC in rat at 10 mg/kg, po; format: ADME, organism-based; set-up: dose 10 mg/kg, route oral; settings: plasma
[8] = Oral bioavailability in rat at 10 mg/kg; format: ADME, organism-based; settings: in vivo
[9] = Clearance in cynomolgus monkey at […], iv and 10 mg/kg, po; format: ADME, organism-based, Macaca fascicularis; settings: in vivo
[10] = Volume of distribution at steady state in cynomolgus monkey at […], iv and 10 mg/kg, po; format: ADME, organism-based, Macaca fascicularis; settings: in vivo, read-out: Vdss
[11] = Half life in cynomolgus monkey at […], iv; format: ADME, organism-based, Macaca fascicularis; set-up: dose 2.5 mg/kg, route intravenous; settings: in vivo
[12] = AUC in cynomolgus monkey at 10 mg/kg, po; format: ADME, organism-based, Macaca fascicularis; set-up: dose 10 mg/kg, route oral; settings: plasma
[13] = Oral bioavailability in cynomolgus monkey at 10 mg/kg; format: ADME, organism-based, Macaca fascicularis; settings: in vivo

Sequence of C-C chemokine receptor type 5 (P51681 whole entry): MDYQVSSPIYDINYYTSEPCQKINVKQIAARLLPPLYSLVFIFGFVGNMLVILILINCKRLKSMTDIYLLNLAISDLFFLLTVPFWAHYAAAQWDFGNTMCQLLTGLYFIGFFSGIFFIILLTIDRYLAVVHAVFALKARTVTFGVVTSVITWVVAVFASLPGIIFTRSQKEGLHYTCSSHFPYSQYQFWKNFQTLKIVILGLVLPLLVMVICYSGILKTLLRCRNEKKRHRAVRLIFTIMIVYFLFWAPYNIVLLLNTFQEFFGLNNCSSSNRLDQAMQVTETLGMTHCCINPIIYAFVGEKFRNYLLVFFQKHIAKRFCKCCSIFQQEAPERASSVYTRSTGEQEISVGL

Compound | IC50 [1] [nM] | also measured
CC[C@H]1COCC[C@@H]1N[C@@H]1CC[C@@](C(=O)N2CCN(c3cccc(C(F)(F)F)c3)CC2)(C(C)C)C1 | 546 | –
CC(C)[C@]1(C(=O)N2CCN(c3ccccc3C(F)(F)F)CC2)CC[C@@H](NC2CCOCC2)C1 | – | inhibition [2]: 19%
CC(C)[C@]1(C(=O)N2CCN(c3cccc(C(F)(F)F)c3)CC2)CC[C@@H](NC2CCOCC2)C1 | 283 | –
COC[C@@H]1COCC[C@@H]1N[C@@H]1CC[C@@](C(=O)N2CCN(c3cccc(C(F)(F)F)c3)CC2)(C(C)C)C1 | 201 | –
CC(C)[C@]1(C(=O)N2CCN(c3ccc(C(F)(F)F)cc3)CC2)CC[C@@H](NC2CCOCC2)C1 | – | inhibition [2]: 40%
CO[C@@H]1COCC[C@@H]1N[C@@H]1CC[C@@](C(=O)N2CCN(c3cc(C(F)(F)F)ccn3)CC2)(C(C)C)C1 | – | half-life [3]: 1.55 h; clearance [4]: 63.3 mL/min/kg; Vd [5]: 17 L/kg; half-life [6]: 5 h; AUC [7]: 3 µM·h; bioavailability [8]: 84%; clearance [9]: 36.7 mL/min/kg; Vd [10]: 6.2 L/kg; half-life [11]: 3 h; AUC [12]: 5.3 µM·h; bioavailability [13]: 57%
CC(C)[C@]1(C(=O)N2CCC(c3ccccc3)CC2)CC[C@@H](NC2CCOCC2)C1 | – | inhibition [2]: 0%
CC[C@@H]1COCC[C@@H]1N[C@@H]1CC[C@@](C(=O)N2CCN(c3cccc(C(F)(F)F)c3)CC2)(C(C)C)C1 | 18 | –
CC[C@@H]1COCC[C@H]1N[C@@H]1CC[C@@](C(=O)N2CCN(c3cccc(C(F)(F)F)c3)CC2)(C(C)C)C1 | 1000 | –
CO[C@@H]1COCC[C@@H]1N[C@@H]1CC[C@](CC(F)(F)F)(C(=O)N2CCN(c3cc(C(F)(F)F)ccn3)CC2)C1 | 8.4 | –
CC[C@H]1COCC[C@H]1N[C@@H]1CC[C@@](C(=O)N2CCN(c3cccc(C(F)(F)F)c3)CC2)(C(C)C)C1 | 312 | –
COC[C@H]1COCC[C@H]1N[C@@H]1CC[C@@](C(=O)N2CCN(c3cccc(C(F)(F)F)c3)CC2)(C(C)C)C1 | 572 | –

Continued, in another order:

IC50 [1] [nM] | Compound | also measured
> 1000 | CC(C)[C@]1(C(=O)N2CCN(c3cccc(C(F)(F)F)c3)CC2)CC[C@@H](N[C@@H]2CCOC[C@H]2C)C1 | –
206 | CCO[C@H]1COCC[C@H]1N[C@@H]1CC[C@@](C(=O)N2CCN(c3cccc(C(F)(F)F)c3)CC2)(C(C)C)C1 | –
108 | CC(C)[C@]1(C(=O)N2CCN(c3cccc(C(F)(F)F)c3)CC2)CC[C@@H](N[C@@H]2CCOC[C@@H]2C)C1 | –
26.5 | CO[C@@H]1COCC[C@@H]1N[C@@H]1CC[C@@](C(=O)N2CCN(c3cccc(C(F)(F)F)n3)CC2)(C(C)C)C1 | –
22.5 | CCO[C@@H]1COCC[C@@H]1N[C@@H]1CC[C@@](C(=O)N2CCN(c3cccc(C(F)(F)F)c3)CC2)(C(C)C)C1 | –
23 | CO[C@@H]1COCC[C@@H]1N[C@@H]1CC[C@@](C(=O)N2CCN(c3cccc(C(F)(F)F)c3)CC2)(C(C)C)C1 | –
204 | CO[C@H]1COCC[C@H]1N[C@@H]1CC[C@@](C(=O)N2CCN(c3cccc(C(F)(F)F)c3)CC2)(C(C)C)C1 | –
77 | CC(C)[C@]1(C(=O)N2CCN(c3cccc(C(F)(F)F)c3)CC2)CC[C@@H](N[C@H]2CCOC[C@H]2C)C1 | –
370 | CC(C)[C@]1(C(=O)N2CCN(c3cccc(C(F)(F)F)c3)CC2)CC[C@@H](N[C@H]2CCOC[C@@H]2C)C1 | –
